From PubChem BioAssay AID540340 (Sanford-Burnham Center for Chemical Genomics, 2011) come the findings set out here.

Some results are limits rather than exact numbers.

In this assay the target is C-C chemokine receptor type 6 (Homo sapiens) (UniProt P51684). Nature of the assay: inhibition of CXCL13-driven CXCR5 beta-arrestin recruitment – cell-based, luminescence, CHO-K1 PathHunter, selectivity assay for CCR6 antagonist project, SAR follow-up (AID 540340). The conditions noted are these: CCR6 beta-arrestin antagonism, AID540334.
Sequence of C-C chemokine receptor type 6 (Homo sapiens) (P51684 whole entry, looked up): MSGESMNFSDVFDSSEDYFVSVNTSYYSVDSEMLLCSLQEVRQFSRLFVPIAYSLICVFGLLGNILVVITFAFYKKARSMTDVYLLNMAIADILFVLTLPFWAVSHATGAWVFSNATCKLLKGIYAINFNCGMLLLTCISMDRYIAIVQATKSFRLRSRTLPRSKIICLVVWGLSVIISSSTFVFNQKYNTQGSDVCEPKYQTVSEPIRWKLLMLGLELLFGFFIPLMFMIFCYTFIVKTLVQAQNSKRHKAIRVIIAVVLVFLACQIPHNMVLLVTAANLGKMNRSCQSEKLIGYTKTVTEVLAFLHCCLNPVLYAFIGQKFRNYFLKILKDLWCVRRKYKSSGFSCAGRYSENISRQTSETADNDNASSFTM
As usually defined, the IC50 is the midpoint of a concentration-inhibition curve. In turn, `CN1CCc2nc(SCc3ccc(Cl)cc3)c(C#N)c(-c3cccs3)c2C1` showed an IC50 above 66.6 µM.
`CCCCCCCCCCCCC/C=C/[C@@H](O)[C@@H](N)CO` had an IC50 of 20.9 µM.
In the case of `O=C1C2C3C=CC(CO)(O3)C2C(=O)N1c1ccccc1-c1ccccc1` (stereo unspecified), the IC50 was above 66.6 µM.
As to `Cn1c(O)c(C2=NNC(c3ccc(Cl)cc3)C2)c(=O)n(C)c1=O` (stereo unspecified), the IC50 amounted to 5.84 µM.
In the case of `Cc1cccc2c1N(CCCOc1ccc(C(C)(C)C)cc1)C(=O)C2=O` it was above 66.6 µM.
Compound `C/C=C(\C)C(=O)OC1[C@H](OC(C)=O)C2(CO)C(CC1(C)C)C1=CCC3C4(C)CCC(O[C@@H]5O[C@H](C(=O)O)[C@@H](O[C@@H]6O[C@H](CO)[C@@H](O)[C@H](O)[C@H]6O)[C@H](O)[C@H]5O[C@H]5O[C@H](CO)[C@@H](O)[C@H](O)[C@H]5O)[C@](C)(CO)C4CCC3(C)[C@]1(C)C[C@H]2O` (stereo partly specified) gave an IC50 of 7.82 µM.
